Results from patent publication US5585492A, “LTA4 Hydrolase inhibitors” (priority 1994, dated 1996).
pIC50: −log10 of the molar value.

Test system: LTB4 production in human blood
Assay: Inhibition of Calcium Ionophore-Induced LTB4 Production in Human Blood (HWB)
Type: cell-based
Conditions: Homo sapiens, human whole blood, A23187 20 mcg/ml; read-out: Inhibition of Calcium Ionophore-Induced LTB4 Production in Human Blood IC50 HWB
Method: One or more concentrations of the leukotriene A4 hydrolass inhibitor compounds being tested were prepared (diluted in DMSO) and 2 μl added and gently mixed with the diluted whole blood. After incubating for 15 minutes at 37° C. in a humidified incubator, calcium ionophore A23187 (Sigma Chemical Co., St. Louis, Mo.) was added to a final concentration of 20 mcg/ml and the incubation continued under the same conditions for an additional 10 minutes to allow LTB4 formation. The reaction was terminated by centrifugation (833 g, 10 minutes at 4° C.) and supernatant were analyzed for LTB4 and thromboxane by commercially available enzyme-linked immunoassays (Caymen Chemical Co., Ann Arbor, Mich.) according to the manufacturer's instructions. The IC50 of each test compound was determined from the amount of inhibition of LTB4 production as compared to an essentially identical assay in which no inhibitor compound was present.

| SMILES | pIC50 |
| --- | --- |
| CC(=O)N1CCN(CC2Cc3cc(Cc4ccccc4)ccc3O2)CC1 (stereo not drawn) [Example 294] | 6.47 |
| O=C(O)C1CCN(CCOc2ccc(Cc3ccccc3)s2)CC1 [Example 371] | 6.19 |
| CC(C)(C)OC(=O)C1CCN(CCCOc2ccc(Cc3ccccc3)cc2)CC1 [Example 263] | 5.06 |
| c1csc(Cc2ccc(OCCN3CCCC3)cc2)c1 [Example 133] | 7.37 |
| NC(=O)C1CCN(CCOc2ccc(Cc3ccsc3)cc2)CC1 [Example 230] | 6.55 |
| C[C@@H]1C[C@H](C(N)=O)C[C@H](C)N1CCOc1ccc(Cc2ccccc2)cc1 [Example 316] | 6.88 |
| c1ccc2ncc(Cc3ccc(OCCN4CCCC4)cc3)cc2c1 [Example 132] | 6.30 |
| NC(=O)C1CCN(CCOc2ccc(Oc3ccccc3)cc2)CC1 [Example 252] | 6.90 |
| CCOC(=O)C1C2CN(CCOc3ccc(Cc4ccccc4)cc3)CC21 (stereo not drawn) [Example 325] | 5.62 |
| c1ccc2cc(COc3ccc(OCCN4CCCC4)cc3)ccc2c1 [Example 200] | 5.72 |
| CCOC(=O)C1CCN(CCOc2ccc(Cc3cccs3)cc2)CC1 [Example 310] | 5.87 |
| c1ccc(Cc2ccc(OCCN3CCCC3)cc2)nc1 [Example 138] | 6.28 |
| CNC(=O)C1CCN(CC2Cc3cc(Oc4ccccc4)ccc3O2)CC1 (stereo not drawn) [Example 296] | 6.29 |
| c1ccc(Cc2ccc(OCCNC3CCCCC3)cc2)cc1 [Example 240] | 5.61 |
| NC(=O)C1CCCN(CCOc2ccc(Oc3ccccc3)cc2)C1 (stereo not drawn) [Example 253] | 6.31 |
| NC(=O)C1CCN(CC2Cc3cc(Cc4ccccc4)ccc3O2)CC1 (stereo not drawn) [Example 281] | 6.78 |
| c1ccc(Oc2ccc(OCCN3CCCC3)nc2)cc1 [Example 65] | 6.29 |
| O=C(CCNCCCCOc1ccc(Cc2ccccc2)cc1)OCc1ccccc1 [Example 273] | 6.81 |
| c1ccc(Cc2ccc3c(c2)CCC(CN2CCCC2)O3)cc1 (stereo not drawn) [Example 292] | 7.28 |
| OC1CCN(CCOc2ccc(Cc3ccccc3)cc2)CC1 [Example 247] | 6.70 |
| c1ccc(Cc2ccc3c(c2)CC(CN2CCCC2)O3)cc1 (stereo not drawn) [Example 280] | 7.68 |
| CCOC(=O)CCNCCCOc1ccc(Cc2ccccc2)cc1 [Example 265] | 6.35 |
| O=C(OCc1ccccc1)C1CCCN1CCCOc1ccc(Cc2ccccc2)cc1 (stereo not drawn) [Example 258] | 5.84 |
| Clc1cccc(Cc2ccc(OCCN3CCCC3)cc2)c1 [Example 143] | 6.54 |
| Clc1cc(OCCN2CCCC2)ccc1Cc1ccccc1 [Example 114] | 4.80 |
| Fc1cccc(Cc2ccc(OCCN3CCCC3)cc2)c1 [Example 142] | 7.00 |
| CCOC(=O)C1CCN(CCOc2ccc(Oc3ccccc3)cc2)CC1 [Example 254] | 5.90 |
| CCOC(=O)C1CCN(CC2Cc3cc(Cc4ccccc4)ccc3O2)CC1 (stereo not drawn) [Example 282] | 5.86 |

Second part, the compound after the results:

| pIC50 | SMILES |
| --- | --- |
| 6.55 | NCCOc1ccc(Cc2ccccc2)cc1 [Example 496] |
| 6.21 | O=C(CCl)NC1CCN(CCOc2ccc(Cc3ccccc3)cc2)C1 (stereo not drawn) [Example 454] |
| 6.15 | NC(=O)CCNCCCOc1ccc(Cc2ccccc2)cc1 [Example 423] |
| 4.88 | c1ccc(Cc2ccc(OCCn3cnc4ccccc43)cc2)cc1 [Example 339] |
| 6.12 | c1ccc(Cc2ccc(OCCCn3cnc4cnccc43)cc2)cc1 [Example 356B] |
| 7.07 | O=C(O)C1C2CN(CCOc3ccc(Cc4ccccc4)cc3)CC21 (stereo not drawn) [Example 435] |
| 6.44 | CC1CC(C(N)=NO)CCN1CCOc1ccc(Cc2ccccc2)cc1 (stereo not drawn) [Example 445] |
| 6.04 | N=C(N)C1CCN(CCOc2ccc(Cc3ccccc3)cc2)CC1 [Example 449] |
| 5.17 | c1ccc(COc2ccc(OCCn3cccc4ncnc3-4)cc2)cc1 [Example 346C] |
| 6.44 | c1ccc(Oc2ccc(OCCCn3ccc4ncnc-4c3)cc2)cc1 [Example 351C] |
| 6.65 | CC(=O)N[C@@H]1CCN(CCOc2ccc(Cc3ccccc3)cc2)[C@@H](C)C1 (relative stereo) [Example 467] |
| 4.87 | c1ccc(Oc2ccc(OCCn3cnc4ccccc43)cc2)cc1 [Example 344] |
| 5.89 | c1ccc(Cc2ccc(OCCCn3cnc4ccncc43)cc2)cc1 [Example 356A] |
| 6.18 | CNC(=O)CCNCCCOc1ccc(Cc2ccccc2)cc1 [Example 422] |
| 6.42 | c1ccc(COc2ccc(OCCn3ccc4ncnc-4c3)cc2)cc1 [Example 347C] |
| 6.68 | OCC1CCCN1CCOc1ccc(Cc2ccccc2)cc1 (stereo not drawn) [Example 385] |

| pIC50 | SMILES |
| --- | --- |
| 6.49 | c1ccc(Oc2ccc(OCCn3cnc4cnccc43)cc2)cc1 [Example 349B] |
| 6.66 | c1ccc(Cc2ccc(OCCN3CC4CCC3C4)cc2)cc1 (stereo not drawn) [Example 499] |
| 6.10 | NC(=O)CCNC(=O)C1CCN(CCOc2ccc(Cc3ccccc3)cc2)CC1 [Example 421] |
| 5.70 | CCC(CN1CCCC1)Oc1ccc(Cc2ccccc2)cc1 (stereo not drawn) [Example 405] |
| 6.92 | NNC(=O)C1CCN(CCOc2ccc(Cc3ccccc3)cc2)CC1 [Example 419] |
| 6.68 | Fc1ccc(Oc2ccc(OCCn3ccc4ncnc-4c3)cc2)cc1 [Example 355C] |
| 7.38 | COC(=O)CCN(C)CCCOc1ccc(Cc2ccccc2)cc1 [Example 413] |
| 6.08 | CCOC(=O)CCN(CCCOc1ccc(Cc2ccccc2)cc1)Cc1cccnc1 [Example 414] |
| 7.24 | [O-][n+]1cccc2c1ncn2CCOc1ccc(Cc2ccccc2)cc1 [Example 363] |
| 5.42 | CC(CN1CCCCC1)Oc1ccc(Cc2ccccc2)cc1 (stereo not drawn) [Example 403] |
| 6.04 | Fc1ccc(Oc2ccc(OCCn3cnc4cnccc43)cc2)cc1 [Example 355B] |
| 5.15 | c1ccc(COc2ccc(OCCn3cnc4ccncc43)cc2)cc1 [Example 347A] |
| 6.27 | c1ccc(Oc2ccc(OCCn3cccc4ncnc3-4)cc2)cc1 [Example 348C] |
| 6.16 | O=C(O)C1CCN(CCOc2ccc(Cc3cccs3)cc2)CC1 [Example 437] |
| 6.82 | c1ccc(Cc2ccc3c(c2)CC(Cn2cnc4ccncc42)O3)cc1 (stereo not drawn) [Example 358A] |
| 6.26 | O=C(O)C1CCN(CCOc2ccc(Cc3cccc(F)c3)cc2)CC1 [Example 436] |
